# Experimental data reported in patent publication US10669272B2, “Substituted naphthyridinone compounds useful as T cell activators” (BRISTOL-MYERS SQUIBB COMPANY, priority 2018, dated 2020).
# Like-named read-outs stand apart in the source and are kept apart here.
# Legend:
# human DGKα = target: T1, human DGKα (Homo sapiens, UniProt P23743); test: DGKα LIPGLO assay (extruded liposome substrate), in vitro DGK inhibition; format: biochemical; conditions: read-out: DGKa LIPGLO IC50
# T1 construct: TVMV protease cleavage site (C); Hexa-His (C); made in house; host or cells: Sf9 insect cells (baculovirus, Bac-to-Bac)
# T1 sequence (P23743 with tags, fused parts or gaps): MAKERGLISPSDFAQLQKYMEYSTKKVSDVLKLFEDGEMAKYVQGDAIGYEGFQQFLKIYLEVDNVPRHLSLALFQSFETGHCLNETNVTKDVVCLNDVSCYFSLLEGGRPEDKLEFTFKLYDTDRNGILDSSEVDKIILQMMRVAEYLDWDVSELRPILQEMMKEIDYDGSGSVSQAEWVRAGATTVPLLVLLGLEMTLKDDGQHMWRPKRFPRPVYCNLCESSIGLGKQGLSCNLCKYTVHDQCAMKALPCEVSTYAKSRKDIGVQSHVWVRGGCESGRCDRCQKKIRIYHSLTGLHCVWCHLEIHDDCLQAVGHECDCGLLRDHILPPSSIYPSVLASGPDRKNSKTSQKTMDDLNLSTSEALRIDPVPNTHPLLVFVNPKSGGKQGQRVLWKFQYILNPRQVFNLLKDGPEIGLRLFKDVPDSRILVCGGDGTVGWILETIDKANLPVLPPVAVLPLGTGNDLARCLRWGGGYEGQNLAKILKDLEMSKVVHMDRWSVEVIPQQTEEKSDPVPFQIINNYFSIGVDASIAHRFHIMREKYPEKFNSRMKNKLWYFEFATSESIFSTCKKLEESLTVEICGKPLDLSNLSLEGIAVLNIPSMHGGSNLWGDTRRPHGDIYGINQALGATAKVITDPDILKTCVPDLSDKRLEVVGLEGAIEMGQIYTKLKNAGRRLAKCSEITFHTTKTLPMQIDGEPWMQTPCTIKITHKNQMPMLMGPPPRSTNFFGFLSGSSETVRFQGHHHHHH
# human DGKζ = target: T2, human DGKζ (Homo sapiens, UniProt Q13574); test: DGKζ LIPGLO assay (extruded liposome substrate), in vitro DGK inhibition; format: biochemical; conditions: read-out: DGKz LIPGLO IC50
# T2 construct: TVMV protease cleavage site (C); Hexa-His (C); made in house; host or cells: Sf9 insect cells (baculovirus, Bac-to-Bac)
# T2 sequence (Q13574 with tags, fused parts or gaps isoform Q13574-4): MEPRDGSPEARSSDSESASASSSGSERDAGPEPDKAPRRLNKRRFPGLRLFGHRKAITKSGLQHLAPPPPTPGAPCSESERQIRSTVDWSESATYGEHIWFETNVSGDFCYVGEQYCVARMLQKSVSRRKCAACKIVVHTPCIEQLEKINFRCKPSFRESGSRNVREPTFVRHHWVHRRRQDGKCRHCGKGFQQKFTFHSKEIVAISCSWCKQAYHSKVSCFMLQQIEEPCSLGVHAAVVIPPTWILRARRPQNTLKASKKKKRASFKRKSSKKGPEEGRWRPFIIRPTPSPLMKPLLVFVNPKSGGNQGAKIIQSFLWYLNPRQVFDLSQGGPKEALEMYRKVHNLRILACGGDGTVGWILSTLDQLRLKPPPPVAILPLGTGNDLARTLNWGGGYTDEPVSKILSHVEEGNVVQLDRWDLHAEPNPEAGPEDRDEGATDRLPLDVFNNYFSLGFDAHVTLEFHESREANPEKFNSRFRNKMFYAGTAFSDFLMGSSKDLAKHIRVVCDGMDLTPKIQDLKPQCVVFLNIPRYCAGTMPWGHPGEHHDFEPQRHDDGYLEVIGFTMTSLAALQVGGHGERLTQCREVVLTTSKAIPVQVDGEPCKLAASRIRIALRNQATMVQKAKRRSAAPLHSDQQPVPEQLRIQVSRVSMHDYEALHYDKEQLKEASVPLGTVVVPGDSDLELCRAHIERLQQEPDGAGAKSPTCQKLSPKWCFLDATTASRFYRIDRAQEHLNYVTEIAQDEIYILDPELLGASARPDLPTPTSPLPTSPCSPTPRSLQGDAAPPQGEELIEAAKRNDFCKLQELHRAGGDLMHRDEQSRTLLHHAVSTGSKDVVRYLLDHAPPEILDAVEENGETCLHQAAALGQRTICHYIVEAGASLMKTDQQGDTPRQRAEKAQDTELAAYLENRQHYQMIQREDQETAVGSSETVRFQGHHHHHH
# Human venous whole blood = test: Human whole blood IFN-γ assay; format: cell-based; conditions: human whole blood, read-out: INFg Whole Blood Normalized Agonist EC50;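 further: blood from healthy donors exposed to compound for 1 h before stimulation with anti-CD3 and anti-CD28 at 1 µg/mL each, IFN-γ quantified in supernatant by AlphaLISA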
# Experimental: Human Whole Blood IFN-γ Assay
# Human venous whole blood (22.5 μL per well), obtained from healthy donors, was pre-treated with compounds for one hour at 37° C. in a humidified 95% air/5% CO2 incubator. The blood was stimulated with 2.5 μL anti-human CD3 and anti-CD28 mAb at a final concentration of 1 μg/mL each for 24 hours at 37° C. IFN-γ in the supernatants was measured using AlphLISA kit (Cat # AL217).
# [1] = normalized to 3 μM reference compound with anti-CD3 plus anti-CD28 as 100% activation
# [2] = anti-CD3 plus anti-CD28, 24 hours, 3 μM reference compound = 100% activation
# [3] = Homo sapiens, 24 h, normalized to 3 μM reference compound with anti-CD3 plus anti-CD28 as 100% activation
Compound,IC50 (human DGKα; liposome (LIPGLO) assay),IC50 (human DGKζ; liposome (LIPGLO) assay),EC50 (Human venous whole blood; [1]),IC50 (human DGKα; DGKα liposome (LIPGLO) assay),IC50 (human DGKζ; DGKζ liposome (LIPGLO) assay),EC50 (Human venous whole blood; [2]),EC50 (Human venous whole blood; [3]),"EC50 (Human venous whole blood; Homo sapiens, 24 h, anti-CD3 plus anti-CD28, 24 hours, 3 μM reference compound = 100% activation)"
"COC(=O)C1CN(c2cc(=O)n(C)c3ccc(C#N)nc23)CCN1C(c1ccc(F)cc1)c1ccc(F)cc1OC (single isomer, unassigned) [Example 70, Methyl 4-(6-cyano-1-methyl-2-oxo-1,2-dihydro-1,5-naphthyridin-4-yl)-1-((4-fluoro-2-methoxyphenyl)(4-fluorophenyl)methyl)piperazine-2-carboxylate]",220 µM,19 µM,10 µM,–,–,–,–,–
Cc1cccc(C(C)N2CCN(c3c(C#N)c(=O)n(C)c4ccc(C#N)nc34)C[C@H]2C)n1 (stereo partly drawn) [Example 967],–,–,–,2.8 µM,51 µM,18 µM,–,–
"CC[C@H]1CN(C(C)c2ccc(OC(F)F)cc2)[C@H](CC)CN1c1cc(=O)n(C)c2ccc(C#N)nc12 (single isomer, unassigned) [Example 1373]",0.0095 µM,0.032 µM,0.095 µM,–,–,–,–,–
"CC(c1ccc(F)cc1)N1C[C@@H](C)N(c2cc(=O)n(C)c3ccc(C#N)nc23)C[C@@H]1CO (single isomer, unassigned) [Example 1179]",> 250 µM,0.85 µM,20 µM,–,–,–,–,–
C[C@@H]1CN(c2cc(=O)n(C)c3ccc(C#N)nc23)[C@@H](C)CN1C(c1ccc(F)cc1)c1cccc(C(F)(F)F)n1 (stereo partly drawn) [Example 678],3.6 µM,1.5 µM,0.44 µM,–,–,–,–,–
"C[C@@H]1CN(c2c(C#N)c(=O)n(C)c3ccc(C#N)nc23)CCN1C(c1ccc(F)cc1)c1cncnc1 (stereo partly drawn) [Example 318, 8-((3R)-4-((4-fluorophenyl)(pyrimidin-5-yl)methyl)-3-methylpiperazin-1-yl)-5-methyl-6-oxo-5,6-dihydro-1,5-naphthyridine-2,7-dicarbonitrile]",4.9 µM,14 µM,–,–,–,–,7.4 µM,–
CC[C@H]1CN(C(c2ccc(C)cc2)c2ccc(C)cc2)[C@H](C)CN1c1cc(=O)n(C)c2ccc(C#N)nc12 [Example 1119],1 µM,0.43 µM,–,–,–,–,17 µM,–
"CC[C@@H]1CN(c2cc(=O)n(C)c3ccc(C#N)nc23)[C@@H](C)CN1C(c1ccc(Cl)cc1)c1ccccn1 (single isomer, unassigned) [Example 423]",0.027 µM,0.17 µM,0.74 µM,–,–,–,–,–
"C[C@@H]1CN(c2cc(=O)n(C)c3ccc(C#N)nc23)[C@@H](C)CN1C(c1ccc(F)cc1)c1cnn(C2CC2)c1 (single isomer, unassigned) [Example 726]",–,–,–,1.9 µM,0.059 µM,0.8 µM,–,–
C[C@@H]1CN(c2c(C#N)c(=O)n(C)c3ccc(C#N)nc23)CCN1Cc1ccc(C(C)(C)C)cc1 [Example 1013],–,–,–,7.3 µM,47 µM,–,–,1.4 µM
"CC(c1cccc(OC(F)(F)F)c1F)N1C[C@H](C)N(c2cc(=O)n(C)c3ccc(C#N)nc23)C[C@H]1C (single isomer, unassigned) [Example 1208]",1.1 µM,0.037 µM,1 µM,–,–,–,–,–
"C[C@@H]1CN(c2c(C#N)c(=O)n(C)c3ccc(C#N)nc23)CCN1C(c1ccc(F)cc1)c1ccc(C(F)(F)F)cc1 (single isomer, unassigned) [Example 910]",–,–,–,3 µM,11 µM,20 µM,–,–
"COc1cc(C(C)N2C[C@H](C)N(c3cc(=O)n(C)c4ccc(C#N)nc34)C[C@H]2C)ccc1F (single isomer, unassigned) [Example 1232]",33 µM,1.4 µM,20 µM,–,–,–,–,–
"CCC(c1ccc(OC(C)C)cc1)N1C[C@H](C)N(c2cc(=O)n(C)c3ccc(C#N)nc23)C[C@H]1C (single isomer, unassigned) [Example 1450]",22 µM,3.6 µM,6.8 µM,–,–,–,–,–
"C[C@@H]1CN(c2cc(=O)n(C)c3ccc(C#N)nc23)[C@@H](C)CN1C(c1ccc(F)cc1)C1CCS(=O)(=O)CC1 (single isomer, unassigned) [Example 1300]",14 µM,1.8 µM,–,–,–,–,7 µM,–
